# The source made the active and inactive calls. The rule behind the calls is not given here.
# Columns and labels:
# Klebsiella pneumoniae [1] = test: Antibacterial activity against Klebsiella pneumoniae ATCC BAA-2146 assessed as reduction in microbial growth preincubated for 20 to 24 hrs followed by subculture in absence of compound and measured on day 4 CLSI based broth microdilution susceptibility method; assay type: functional; settings: time hrs 20-24
# physchem [2] = test: physchem
# Description: Ionization constant (acid), pKa of the compound by photometric titration assay
# Pseudomonas aeruginosa [3] = test: Antibacterial activity against Pseudomonas aeruginosa ATCC 27853 assessed as reduction in microbial growth preincubated for 20 to 24 hrs followed by subculture in absence of compound and measured on day 4 CLSI based broth microdilution susceptibility method; assay type: functional; settings: time hrs 20-24
# Pseudomonas aeruginosa [4] = test: Antibacterial activity against Pseudomonas aeruginosa PAO1 assessed as reduction in microbial growth preincubated for 20 to 24 hrs followed by subculture in absence of compound and measured on day 4 CLSI based broth microdilution susceptibility method; assay type: functional; settings: time hrs 20-24
# Acinetobacter baumannii [5] = test: Antibacterial activity against Acinetobacter baumannii ATCC BAA-747 assessed as reduction in microbial growth preincubated for 20 to 24 hrs followed by subculture in absence of compound and measured on day 4 CLSI based broth microdilution susceptibility method; assay type: functional; settings: time hrs 20-24
# Escherichia coli [6] = test: microbe, parasite or virus in culture; settings: ATCC 25922
# Description: Antibacterial activity against Escherichia coli ATCC 25922 assessed as reduction in microbial growth preincubated for 20 to 24 hrs followed by subculture in absence of compound and measured on day 4 CLSI based broth microdilution susceptibility method
# Escherichia coli [7] = test: Antibacterial activity against Escherichia coli ATCC BAA-2340 assessed as reduction in microbial growth preincubated for 20 to 24 hrs followed by subculture in absence of compound and measured on day 4 CLSI based broth microdilution susceptibility method; assay type: functional; settings: time hrs 20-24
# Klebsiella pneumoniae [8] = test: Antibacterial activity against Klebsiella pneumoniae ATCC 700603 assessed as reduction in microbial growth preincubated for 20 to 24 hrs followed by subculture in absence of compound and measured on day 4 CLSI based broth microdilution susceptibility method; assay type: functional; settings: time hrs 20-24
# Pseudomonas aeruginosa [9] = test: Antibacterial activity against Pseudomonas aeruginosa ATCC BAA-2113 assessed as reduction in microbial growth preincubated for 20 to 24 hrs followed by subculture in absence of compound and measured on day 4 CLSI based broth microdilution susceptibility method; assay type: functional; settings: time hrs 20-24
# Acinetobacter baumannii [10] = test: Antibacterial activity against Acinetobacter baumannii ATCC 51432 assessed as reduction in microbial growth preincubated for 20 to 24 hrs followed by subculture in absence of compound and measured on day 4 CLSI based broth microdilution susceptibility method; assay type: functional; settings: time hrs 20-24
# Acinetobacter baumannii [11] = test: Antibacterial activity against Acinetobacter baumannii ATCC 19606 assessed as reduction in microbial growth preincubated for 20 to 24 hrs followed by subculture in absence of compound and measured on day 4 CLSI based broth microdilution susceptibility method; assay type: functional; settings: time hrs 20-24
# Escherichia coli [12] = test: Antibacterial activity against Escherichia coli ATCC 35218 assessed as reduction in microbial growth preincubated for 20 to 24 hrs followed by subculture in absence of compound and measured on day 4 CLSI based broth microdilution susceptibility method; assay type: functional; settings: time hrs 20-24
# Klebsiella pneumoniae [13] = test: Antibacterial activity against Klebsiella pneumoniae ATCC 10031 assessed as reduction in microbial growth preincubated for 20 to 24 hrs followed by subculture in absence of compound and measured on day 4 CLSI based broth microdilution susceptibility method; assay type: functional; settings: time hrs 20-24
# Escherichia coli [14] = test: microbe, parasite or virus in culture; settings: ATCC 29213
# Description: Antibacterial activity against Escherichia coli ATCC 29213 assessed as reduction in microbial growth preincubated for 20 to 24 hrs followed by subculture in absence of compound and measured on day 4 CLSI based broth microdilution susceptibility method
# [15] = Distribution coefficient between octanol and buffer, log D of the compound in pH 7.4 buffer by CAMDIS assay; assay type: physicochemical
# in vitro = settings: mouse, liver microsomes
# Description: Intrinsic clearance in mouse liver microsomes preincubated for 10 mins followed by NADPH regenerating system addition and measured up to 30 mins by LC/MS-MS analysis
# [16] = Protein binding in plasma (unknown origin) assessed as unbound fraction at 1 uM after 5 hrs by LC/MS-MS analysis; assay type: ADME, cell-free
# physchem [17] = settings: PBS, pH 6.5
# Description: Solubility of compound in PBS at pH 6.5 incubated for over night by HPLC-UV based lyophilization solubility assay
# [18] = Intrinsic clearance in mouse hepatocytes by LC/MS-MS analysis; assay type: ADME, cell-based, Hepatocyte
# [19] = Dissociation constant, pKa of compound by photometric titration assay; assay type: physicochemical
# [20] = Clearance in iv dosed CD-1 mouse measured up to 24 hrs by LC-MS/MS analysis; assay type: ADME, organism-based; settings: in vivo
# [21] = AUC/dose in iv dosed CD-1 mouse measured up to 24 hrs by LC-MS/MS analysis; assay type: ADME, organism-based; settings: in vivo
# [22] = Half life in iv dosed CD-1 mouse measured up to 24 hrs by LC-MS/MS analysis; assay type: ADME, organism-based; settings: in vivo
# [23] = Volume of distribution at steady state in iv dosed CD-1 mouse measured up to 24 hrs by LC-MS/MS analysis; assay type: ADME, organism-based; settings: in vivo, read-out: Vdss
# [24] = Cmax/dose in iv dosed CD-1 mouse measured up to 24 hrs by LC-MS/MS analysis; assay type: ADME, organism-based; settings: in vivo
# [25] = Plasma protein binding in iv dosed CD-1 mouse measured up to 24 hrs by LC-MS/MS analysis; assay type: ADME, organism-based; settings: read-out: PPB (converted)
# [26] = Ratio of fAUC in Escherichia coli ATCC 25922 infected ICR mouse model of neutropenic thigh infection to MIC for Escherichia coli ATCC […]; assay type: ADME; settings: 45 mg/kg, 12 h
# Escherichia coli [27] = test: Antibacterial activity against Escherichia coli ATCC 25922 infected in ICR mouse model of neutropenic thigh infection assessed as reduction in microbial growth at 10 to 25 mg/kg, iv and measured after 12 hrs; assay type: functional, organism-based; settings: dose mg/kg 10-25, time 12.0 hrs
# [28] = fAUC in Escherichia coli ATCC 25922 infected ICR mouse model of neutropenic thigh infection; assay type: ADME; settings: 45 mg/kg, 12 h
# Escherichia coli [29] = test: Antibacterial activity against Escherichia coli ATCC 25922 infected in ICR mouse model of neutropenic thigh infection assessed as reduction in colony forming unit at 45 mg/kg, iv bid for 12 hrs; assay type: functional, organism-based
# Escherichia coli [30] = test: Antibacterial activity against Escherichia coli ATCC 25922 infected in ICR mouse model of neutropenic thigh infection assessed as reduction in microbial growth at 40 to 45 mg/kg, iv bid for 12 hrs; assay type: functional, organism-based
MIC (Klebsiella pneumoniae [1]),pKa (physchem [2]),MIC (Pseudomonas aeruginosa [3]),MIC (Pseudomonas aeruginosa [4]),MIC (Acinetobacter baumannii [5]),MIC (Escherichia coli [6]),MIC (Escherichia coli [7]),MIC (Klebsiella pneumoniae [8]),MIC (Pseudomonas aeruginosa [9]),MIC (Acinetobacter baumannii [10]),MIC (Acinetobacter baumannii [11]),MIC (Escherichia coli [12]),MIC (Klebsiella pneumoniae [13]),MIC (Escherichia coli [14]),logD [15],CLint scaled at 0.5 h (in vitro),"fraction unbound at 5 h, 1 µM [16]",solubility (physchem [17]),CLH [18],Structure (SMILES),other results
5.7 µg/mL,4.84,2.85 µg/mL,2 µg/mL,2.85 µg/mL,0.25 µg/mL,2.85 µg/mL,1.42 µg/mL,1.42 µg/mL,5.7 µg/mL,1.42 µg/mL,2.85 µg/mL,0.178 µg/mL,< 0.016 µg/mL,3.44,–,–,–,–,CCNc1cc(F)cc2c1[nH]c1ncc(-c3cncc(N)c3)c(-n3ccc(C(F)(F)F)n3)c12,–
–,6.57,–,–,–,1 µg/mL,–,–,–,–,–,–,–,–,–,73.2 mL/min/kg,0.012,< 0.3 µg/mL,–,CCNc1cc(F)cc2c1[nH]c1ncc(-c3cncc(C#N)c3)c(-n3nc(C(F)(F)F)c4c3CNC4)c12,–
–,7.62,–,–,–,2 µg/mL,–,–,–,–,–,–,–,–,–,70.3 mL/min/kg,0.044,34 µg/mL,74.6 µg/mL,CCNc1cc(F)cc2c1[nH]c1ncc(-c3cncc(C#N)c3)c(-n3ncc4c3CNC4)c12,–
–,–,–,–,–,> 16 µg/mL,–,–,–,–,–,–,–,1 µg/mL,1.9,–,–,–,–,CCNc1cc(F)cc2c1[nH]c1ncc(-c3cncc(C(=O)O)c3)c(-n3ccc(C(F)(F)F)n3)c12,pKa [19]: 3.57
8 µg/mL,8.08,–,2 µg/mL,0.5 µg/mL,< 0.25 µg/mL,2 µg/mL,4 µg/mL,2 µg/mL,1 µg/mL,1 µg/mL,1 µg/mL,< 0.03 µg/mL,–,–,47 mL/min/kg,0.012,90 µg/mL,48.6 µg/mL,CCNc1cc(F)cc2c1[nH]c1ncc(-c3cncc(C#N)c3)c(-n3cc(CN)c(C(F)(F)F)n3)c12,clearance [20]: 50 mL/min/kg; AUC/dose [21]: 324 kg·ng·h/mL/mg; half-life [22]: 1.8 h; Vd [23]: 5.8 L/kg; Cmax/dose [24]: 305 kg·ng/mL/mg; fraction unbound at 24 h [25]: 0.11
–,–,–,–,–,1 µg/mL,–,–,–,–,–,–,–,–,–,77.4 mL/min/kg,0.016,4 µg/mL,–,CCNc1cc(F)cc2c1[nH]c1ncc(-c3cnc(OC)nc3)c(-n3nc(C(F)(F)F)c4c3CNC4)c12,–
–,–,–,–,–,> 8 µg/mL,–,–,–,–,–,–,–,0.25 µg/mL,2.02,–,–,–,–,CCNc1cc(F)cc2c1[nH]c1ncc(-c3cncc(CC(=O)O)c3)c(-n3ccc(C(F)(F)F)n3)c12,pKa [19]: 3.51
22.2 µg/mL,–,11.1 µg/mL,10 µg/mL,2.78 µg/mL,0.81 µg/mL,2.78 µg/mL,22.2 µg/mL,11.1 µg/mL,5.56 µg/mL,5.56 µg/mL,5.56 µg/mL,0.09 µg/mL,–,–,21.8 mL/min/kg,0.11,350 µg/mL,53.9 µg/mL,CCNc1cc(F)cc2c1[nH]c1ncc(-c3cnc(OC)nc3)c(-n3ncc4c3CNC4)c12,clearance [20]: 51 mL/min/kg; AUC/dose [21]: 327 kg·ng·h/mL/mg; half-life [22]: 0.8 h; Vd [23]: 1.6 L/kg; Cmax/dose [24]: 792 kg·ng/mL/mg; fraction unbound at 24 h [25]: 0.11
5.82 µg/mL,–,5.82 µg/mL,2 µg/mL,1.45 µg/mL,0.5 µg/mL,2.91 µg/mL,1.45 µg/mL,1.45 µg/mL,> 23.3 µg/mL,0.73 µg/mL,1.45 µg/mL,0.73 µg/mL,< 0.016 µg/mL,3.63,61.8 mL/min/kg,–,< 0.3 µg/mL,–,CCNc1cc(F)cc2c1[nH]c1ncc(-c3cncc(C#N)c3)c(-n3ccc(C(F)(F)F)n3)c12,–
–,–,–,–,–,> 11.4 µg/mL,–,–,–,–,–,–,–,0.444 µg/mL,1.93,–,–,–,–,CCNc1cc(F)cc2c1[nH]c1ncc(-c3cncc(Cc4nnn[nH]4)c3)c(-n3ccc(C(F)(F)F)n3)c12,pKa [19]: 4.78
12.5 µg/mL,–,1.56 µg/mL,1.3 µg/mL,0.39 µg/mL,0.31 µg/mL,12.5 µg/mL,6.26 µg/mL,1.56 µg/mL,0.78 µg/mL,0.78 µg/mL,3.13 µg/mL,< 0.02 µg/mL,–,–,< 20.2 mL/min/kg,0.027,15 µg/mL,45.3 µg/mL,CCNc1cc(F)cc2c1[nH]c1ncc(-c3cnc(OC)nc3)c(-n3cc(CN)c(C(F)(F)F)n3)c12,clearance [20]: 48 mL/min/kg; fAUC/MIC [26]: >= 6; Activity (Escherichia coli [27]): Active; AUC/dose [21]: 341 kg·ng·h/mL/mg; fAUC [28]: 30000 ng·h/mL; half-life [22]: 1.6 h; Activity (Escherichia coli [29]): Active; Vd [23]: 3.6 L/kg; Cmax/dose [24]: 494 kg·ng/mL/mg; Activity (Escherichia coli [30]): Active; fraction unbound at 24 h [25]: 0.11

# — ChEMBL document CHEMBL4725353, “Discovery of Pyrido[2,3-b]indole Derivatives with Gram-Negative Activity Targeting Both DNA Gyrase and Topoisomerase IV” (J Med Chem, 2020)
